{
  "source": "the supplement of paper PMC10307832",
  "assay_in_all_cases": "relative viability (nuclei count vs DMSO), 5 days (fraction); higher = more cells survive",
  "key": {"[1]": {"compound": "CC[C@H](Nc1ncnc2[nH]cnc12)c1nc2cccc(F)c2c(=O)n1-c1ccccc1 [Idelalisib] + COc1cc2c(Oc3ccc(NC(=O)C4(C(=O)Nc5ccc(F)cc5)CC4)cc3F)ccnc2cc1OCCCN1CCOCC1 [Foretinib] (partner 0.25 µM)", "outline": "(§1)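 Lung cancer cell lines, seeded in 1536-well plates, were treated the following day by pin tool with a single drug or with five library-drug doses (not always all listed) in √10 steps on top of a fixed anchor-drug dose. Cells were fixed and nuclei stained in one step after 5 days, and nuclei were counted. Relative viability is the nuclei count for treated wells divided by that for vehicle wells, reported as medians of duplicate plates.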"}, "[2]": {"compound": "Nc1nc2[nH]cc(CCc3ccc(C(=O)N[C@@H](CCC(=O)O)C(=O)O)cc3)c2c(=O)[nH]1 [Pemetrexed] + N=C(N)NC(=N)NCCc1ccccc1 [Phenformin] (partner 250 µM)", "outline": "as §1"}, "[3]": {"compound": "CC[C@H](Nc1ncnc2[nH]cnc12)c1nc2cccc(F)c2c(=O)n1-c1ccccc1 [Idelalisib] + CC(=O)Nc1cccc(-n2c(=O)n(C3CC3)c(=O)c3c(Nc4ccc(I)cc4F)n(C)c(=O)c(C)c32)c1 [Trametinib] (partner 0.02 µM)", "outline": "as §1"}, "[4]": {"compound": "CC[C@H](Nc1ncnc2[nH]cnc12)c1nc2cccc(F)c2c(=O)n1-c1ccccc1 [Idelalisib] + Cc1nc(NC(=O)N2CCC[C@H]2C(N)=O)sc1-c1ccnc(C(C)(C)C(F)(F)F)c1 [Alpelisib] (partner 2 µM)", "outline": "as §1"}},
  "data": [
    {"cell line": "UMC-11", "values": [
      {"measurement": "relative viability", "setting": "[1]; first compound 0.04 µM", "value": 0.957},
      {"measurement": "relative viability", "setting": "[1]; first compound 0.1265 µM", "value": 1.07},
      {"measurement": "relative viability", "setting": "[1]; first compound 0.4 µM", "value": 0.988},
      {"measurement": "relative viability", "setting": "[1]; first compound 1.265 µM", "value": 1.03},
      {"measurement": "relative viability", "setting": "[1]; first compound 4 µM", "value": 1.09},
      {"measurement": "relative viability", "setting": "[2]; first compound 0.002 µM", "value": 0.325},
      {"measurement": "relative viability", "setting": "[2]; first compound 0.006325 µM", "value": 0.311},
      {"measurement": "relative viability", "setting": "[2]; first compound 0.02 µM", "value": 0.312},
      {"measurement": "relative viability", "setting": "[2]; first compound 0.06325 µM", "value": 0.334},
      {"measurement": "relative viability", "setting": "[2]; first compound 0.2 µM", "value": 0.347},
      {"measurement": "relative viability", "setting": "[3]; first compound 0.04 µM", "value": 0.786},
      {"measurement": "relative viability", "setting": "[3]; first compound 0.1265 µM", "value": 0.651},
      {"measurement": "relative viability", "setting": "[3]; first compound 0.4 µM", "value": 0.629},
      {"measurement": "relative viability", "setting": "[3]; first compound 1.265 µM", "value": 0.764},
      {"measurement": "relative viability", "setting": "[3]; first compound 4 µM", "value": 0.72},
      {"measurement": "relative viability", "setting": "[4]; first compound 0.04 µM", "value": 1.15},
      {"measurement": "relative viability", "setting": "[4]; first compound 0.1265 µM", "value": 0.999},
      {"measurement": "relative viability", "setting": "[4]; first compound 0.4 µM", "value": 0.966},
      {"measurement": "relative viability", "setting": "[4]; first compound 1.265 µM", "value": 0.987},
      {"measurement": "relative viability", "setting": "[4]; first compound 4 µM", "value": 1.05}
    ]}
  ]
}
